Data taken from patent US20230398101A1, “Co-agents as Therapy Against Anaerobic Pathogens” (priority 2022, published 2023).
Like-named read-outs stand apart in the source and are kept apart here.

Key:
[1] = system: Escherichia coli; test: Post-antibiotic effect (PAE) in vitro, viable counts; conditions: Escherichia coli ATCC 25922
[2] = system: Porphyromonas gingivalis; test: Anaerobic agar-dilution AST (MIC, checkerboard FIC); type: cell-based; conditions: ATCC33277
[3] = system: Cutibacterium acnes; test: as above; type: cell-based
[4] = system: Leuconostoc mesenteroides; test: AST (MIC) of beneficial or mutualistic facultative anaerobic bacteria; type: cell-based
[5] = system: Clostridioides difficile; test: Anaerobic agar-dilution AST (MIC, checkerboard FIC); type: cell-based; conditions: for MIC vs clinical breakpoint (susceptibility): anaerobic (Table 17)
[6] = system: Burkholderia thailandensis; test: microbe, parasite or virus in culture; type: cell-based; conditions: ATCC700388, pH 7
[7] = system: Bacteroides fragilis; test: Anaerobic agar-dilution AST (MIC, checkerboard FIC); type: cell-based; conditions: for MIC vs clinical breakpoint (susceptibility): anaerobic (Table 17)
[8] = system: Streptococcus mutans; test: as above; type: cell-based; conditions: strain UA 159, anaerobic
[9] = system: Pediococcus acidilactici; test: AST (MIC) of beneficial or mutualistic facultative anaerobic bacteria; type: cell-based
[10] = system: Parabacteroides distasonis; test: Anaerobic agar-dilution AST (MIC, checkerboard FIC); type: cell-based
[11] = system: Staphylococcus aureus; test: Post-antibiotic effect (PAE) in vitro, viable counts; conditions: Staphylococcus aureus ATCC 33591 (beta-lactam resistant)
[12] = system: Pseudomonas aeruginosa; test: Aerobic agar-dilution AST of facultative anaerobes (MIC, checkerboard FIC); type: cell-based
[13] = system: Bifidobacterium animalis; test: Anaerobic agar-dilution AST (MIC, checkerboard FIC); type: cell-based

With `C[C@@H]1O[C@@H]1P(=O)(O)O` [F, fosfomycin sodium] the PAE ([1]; exposure μg/ml: F 2, D/S 1/19, CAv 4/16, F/D/S 0.25/0.25/4.75, F/D/S/CAv 0.125/0.06/1.19/4/0.5) was 0.5 h, the PAE ([1]; exposure μg/ml: F 4, D/S 2/38, CAv 4/32, F/D/S 0.5/0.5/9.5, F/D/S/CAv 0.25/0.125/2.38/4/1) was 1 h and the PAE ([1]; exposure μg/ml: F 8) was 1.5 h. For the same molecule, the MIC [2] was > 128 mg/L, the MIC ([3]; Cutibacterium acnes) was 128 mg/L and the “MIC vs clinical breakpoint (susceptibility)” value (shortened to “MIC vs clinical breakpoint”) ([3]; Cutibacterium acnes 6609, anaerobic (Table 17)) was “+”. For the same molecule, the MIC ([3]; Cutibacterium acnes, Cutibacterium acnes 6609, anaerobic, read-out: MIC) was 64 mg/L, the MIC ([3]; Cutibacterium acnes, strain 6609, anaerobic, read-out: MIC) was 32 mg/L and the MIC ([3]; strain 6609, anaerobic) was 64 mg/L. The MIC [4] was > 128 mg/L, the “MIC vs clinical breakpoint” value ([5]; Clostridioides difficile 2-0247-4) was “+” and the “MIC vs clinical breakpoint” value ([5]; Clostridioides difficile 3/8) was “+”. For the same molecule, the “MIC vs clinical breakpoint” value ([5]; Clostridioides difficile 10-3620-5) was “+”, the MIC ([5]; Clostridioides difficile, Clostridioides difficile 3/8, anaerobic, read-out: MIC) was 32 mg/L and the MIC ([5]; Clostridioides difficile, Clostridioides difficile 10-3620-5, anaerobic) was 16 mg/L. For the same molecule, the MIC ([5]; Clostridioides difficile, strain 2-0247-4, anaerobic, read-out: MIC) was 16 mg/L, the MIC ([5]; Clostridioides difficile, strain 10-3620-5, anaerobic, read-out: MIC) was 8 mg/L and the MIC ([5]; strain 2-0247-4, anaerobic) was 32 mg/L. For the same molecule, the MIC ([5]; strain 10-3620-5, anaerobic) was 16 mg/L, the MIC [6] was 64000 mg/L and the MIC ([7]; ATCC25285, Bacteroides fragilis ATCC 25285, anaerobic, read-out: MIC) was 64 mg/L. For the same molecule, the “MIC vs clinical breakpoint” value ([7]; Bacteroides fragilis 638R) was “−”, the “MIC vs clinical breakpoint” value ([7]; Bacteroides fragilis ATCC 23745) was “−” and the “MIC vs clinical breakpoint” value ([7]; Bacteroides fragilis ATCC 25285) was “−”. For the same molecule, the “MIC vs clinical breakpoint” value ([7]; Bacteroides fragilis CLA267) was “−”, the “MIC vs clinical breakpoint” value ([7]; Bacteroides fragilis O16M) was “−” and the MIC ([7]; Bacteroides fragilis, ATCC23745, Bacteroides fragilis ATCC 23745, anaerobic) was > 128 mg/L. The MIC ([7]; Bacteroides fragilis, ATCC23745, strain ATCC 23745, anaerobic) was > 128 mg/L, the MIC ([7]; Bacteroides fragilis, ATCC25285, Bacteroides fragilis ATCC 25285, anaerobic) was > 128 mg/L and the MIC ([7]; Bacteroides fragilis, ATCC25285, strain ATCC 25285, anaerobic) was > 128 mg/L. The MIC ([7]; Bacteroides fragilis, Bacteroides fragilis 016M, anaerobic) was > 128 mg/L, the MIC ([7]; Bacteroides fragilis, Bacteroides fragilis 638R, anaerobic) was > 128 mg/L and the MIC ([7]; Bacteroides fragilis, Bacteroides fragilis CLA 267, anaerobic) was > 128 mg/L. The MIC ([7]; Bacteroides fragilis, strain 638R, anaerobic) was > 128 mg/L, the MIC ([7]; Bacteroides fragilis, strain CLA267, anaerobic) was > 128 mg/L and the MIC ([7]; Bacteroides fragilis, strain O16M (016M), anaerobic) was > 128 mg/L. It also gave an MIC ([7]; strain ATCC 25285, anaerobic) of 128 mg/L, an MIC ([7]; strain CLA267, anaerobic) of 128 mg/L and an MIC [8] of 16 mg/L. The MIC [9] was > 128 mg/L, the MIC ([10]; Parabacteroides distasonis) was > 128 mg/L and the MIC ([10]; Parabacteroides distasonis CLA 348, anaerobic) was >128 mg/L. The PAE ([11]; exposure μg/ml: F 16, D/S 1/19, V 4, F/D/S 4/0.25/4.75, F/D/S/V 2/0.125/2.38/0.5) was 0.5 h, the PAE ([11]; exposure μg/ml: F 32, D/S 2/38, V 8, F/D/S 8/0.5/9,5, F/D/S/V 4/0.25/4.75/1) was 0.5 h and the PAE ([11]; exposure μg/ml: F 64, D/S 4/64, V 16, F/D/S 16/1/19, F/D/S/V 8/0.5/9.5/2) was 0.5 h. It also gave an MIC ([12]; Pseudomonas aeruginosa) of 128 mg/L, an MIC ([12]; Pseudomonas aeruginosa 945748) of 128 mg/L and an MIC ([12]; Pseudomonas aeruginosa, pH 5, Pseudomonas aeruginosa 27853, pH 5, read-out: MIC) of 32000 mg/L. For the same molecule, the MIC ([12]; Pseudomonas aeruginosa, pH 5, Pseudomonas aeruginosa 975744, pH 5, read-out: MIC) was 32000 mg/L, the MIC ([12]; Pseudomonas aeruginosa, pH 8, Pseudomonas aeruginosa 27853, pH 8, read-out: MIC) was 64000 mg/L and the MIC ([12]; Pseudomonas aeruginosa, strain 880238, aerobic, read-out: MIC) was 8 mg/L. The MIC ([12]; Pseudomonas aeruginosa, strain 889058, aerobic, read-out: MIC) was 64 mg/L, the MIC ([12]; Pseudomonas aeruginosa, strain 906939, aerobic, read-out: MIC) was 64 mg/L and the MIC ([13]; Bifidobacterium animalis) was 128 mg/L. The “MIC vs clinical breakpoint” value ([13]; Bifidobacterium animalis JLP-002, anaerobic (Table 17)) was “−”, the MIC ([13]; Bifidobacterium animalis TBC0002, anaerobic) was 32 mg/L and the MIC ([13]; Bifidobacterium animalis, Bifidobacterium animalis TBC0002, anaerobic, read-out: MIC) was 64 mg/L. For the same molecule, the susceptibility ([13]; Bifidobacterium, anaerobic) was “no susceptibility” and the MIC ([13]; strain TBC0002, anaerobic) was 128 mg/L.
